Measured values taken from US4508727A, “Antihypertensive 2-oxo-imidazolidine derivatives” (Tanabe Seiyaku Co., Ltd., priority 1982, dated 1985).
Each block holds one compound with its values, some of them ahead of it.

Legend:
ACE [1] = experiment: ACE-inhibitory activity in vivo, pressor response to angiotensin I, oral, rats; set-up: species or system rat; details: for ACE-inhibitory activity (%): normotensive rats, 1 mg/kg orally, angiotensin I 300 ng/kg i.v.
Experimental: Normotensive rats were anesthetized with urethane (1.2 g/kg, s.c.), and angiotensin I (300 ng/kg) was injected into the jugular vein of the rats. The pressor response to angiotensin I was measured with a pressure transducer connected to the carotid artery. Then, a test compound was administered orally thereto at a dose of 1 mg/kg, and angiotensin I (300 ng/kg) was further injected intravenously at intervals. The ACE-inhibitoryactivity of the test compound was estimated from the pressor responses to angiotensin I which were obtained before and after oral administration of the test compound.

[2] = test system: spontaneously hypertensive rats (SHR); experiment: Hypotensive activity in SHR; assay type: in vivo, rat; details: 3 mg/kg orally; for hypotensive activity, Blood pressure (b): measured after administration of the test compound / hypotensive activity, Blood pressure (a): measured before administration of the test compound / Duration of action: SHR; for hypotensive activity, Blood pressure (b): measured after administration of the test compound / hypotensive activity, Blood pressure (a): measured before administration of the test compound: systolic
Experimental: A test compound suspended in an aqueous carboxymethyl-cellulose solution was administered orally (dose: 3 mg/kg) to spontaneously hypertensive rats (SHR) fasted overnight. The systolic blood pressure of the rats was measured by the tail plethysmographic technique (The Journal of Laboratory and Clinical Medicine 78 (1971), page 957). The hypotensive activity of the test compound was estimated from the decreased level of blood pressure.

ACE [3] = experiment: ACE-inhibitory activity in vivo, pressor response to angiotensin I, intravenous, rats; set-up: species or system rat; details: normotensive rats, 10 γ/kg intravenously, angiotensin I 300 ng/kg
Experimental: (§1) Normotensive rats and normotensive cats were anesthetized with urethane (1.2 g/kg, s.c.), and angiotensin I (rat: 300 ng/kg, cat: 600 ng/kg) was injected into the jugular vein of the rats and the femoral vein of the cats. The pressor response to angiotensin I was measured with a pressure transducer connected to the carotid artery. Then, a test compound was injected intravenously thereto at a dose of 10 γ/kg, and angiotensin I (rat: 300 ng/kg, cat: 600 ng/kg) was further injected intravenously at intervals. The ACE-inhibitory activity of the test compound was estimated by dose-response curve measured from the pressor responses to angiotensin I which were obtained before and after intravenous injection of the test compound.

ACE [4] = experiment: ACE-inhibitory activity in vivo, pressor response to angiotensin I, intravenous, cats; set-up: species or system cat; details: normotensive cats, 10 γ/kg intravenously, angiotensin I 600 ng/kg
Experimental: as §1

mice = experiment: toxicity, intravenous administration to mice; assay type: in vivo; details: 1000 mg/kg intravenously, 7 days after the administration
Experimental: Further, the toxicity of the compound (I) of the invention is remarkably low. For example, when (4S)-1-benzyl-3-{(2 S)-2-[N-((1S)-1-carboxy-3-phenylpropyl)amino]propionyl}-2-oxo-imidazolidine-4-carboxylic acid and (4S)-1-methyl-3-{(2S)-2-[N-((1S)-1-carboxy-n-nonyl)amino]propionyl}-2-oxo- imidazolidine-4-carboxylic acid were administered intravenously to mice at the dose of 1000 mg/kg, no mice died 7 days after the administration. Thus, angiotensin-dependent hypertension in mammals can be alleviated by administration of the compound (I) of the present invention or a pharmaceutically acceptable salt thereof.

[5] = molecular target: T1, angiotensin-converting enzyme (ACE) isolated from pig's renal cortex (Sus scrofa, UniProt F1RRW5); experiment: ACE-inhibitory activity in vitro; assay type: biochemical; details: substrate hippuryl-histidyl-leucine, 37° C., 20 minutes
T1 construct: isolated from pig's renal cortex; from tissue; host or cells: pig renal cortex
T1 sequence (F1RRW5 34-1309): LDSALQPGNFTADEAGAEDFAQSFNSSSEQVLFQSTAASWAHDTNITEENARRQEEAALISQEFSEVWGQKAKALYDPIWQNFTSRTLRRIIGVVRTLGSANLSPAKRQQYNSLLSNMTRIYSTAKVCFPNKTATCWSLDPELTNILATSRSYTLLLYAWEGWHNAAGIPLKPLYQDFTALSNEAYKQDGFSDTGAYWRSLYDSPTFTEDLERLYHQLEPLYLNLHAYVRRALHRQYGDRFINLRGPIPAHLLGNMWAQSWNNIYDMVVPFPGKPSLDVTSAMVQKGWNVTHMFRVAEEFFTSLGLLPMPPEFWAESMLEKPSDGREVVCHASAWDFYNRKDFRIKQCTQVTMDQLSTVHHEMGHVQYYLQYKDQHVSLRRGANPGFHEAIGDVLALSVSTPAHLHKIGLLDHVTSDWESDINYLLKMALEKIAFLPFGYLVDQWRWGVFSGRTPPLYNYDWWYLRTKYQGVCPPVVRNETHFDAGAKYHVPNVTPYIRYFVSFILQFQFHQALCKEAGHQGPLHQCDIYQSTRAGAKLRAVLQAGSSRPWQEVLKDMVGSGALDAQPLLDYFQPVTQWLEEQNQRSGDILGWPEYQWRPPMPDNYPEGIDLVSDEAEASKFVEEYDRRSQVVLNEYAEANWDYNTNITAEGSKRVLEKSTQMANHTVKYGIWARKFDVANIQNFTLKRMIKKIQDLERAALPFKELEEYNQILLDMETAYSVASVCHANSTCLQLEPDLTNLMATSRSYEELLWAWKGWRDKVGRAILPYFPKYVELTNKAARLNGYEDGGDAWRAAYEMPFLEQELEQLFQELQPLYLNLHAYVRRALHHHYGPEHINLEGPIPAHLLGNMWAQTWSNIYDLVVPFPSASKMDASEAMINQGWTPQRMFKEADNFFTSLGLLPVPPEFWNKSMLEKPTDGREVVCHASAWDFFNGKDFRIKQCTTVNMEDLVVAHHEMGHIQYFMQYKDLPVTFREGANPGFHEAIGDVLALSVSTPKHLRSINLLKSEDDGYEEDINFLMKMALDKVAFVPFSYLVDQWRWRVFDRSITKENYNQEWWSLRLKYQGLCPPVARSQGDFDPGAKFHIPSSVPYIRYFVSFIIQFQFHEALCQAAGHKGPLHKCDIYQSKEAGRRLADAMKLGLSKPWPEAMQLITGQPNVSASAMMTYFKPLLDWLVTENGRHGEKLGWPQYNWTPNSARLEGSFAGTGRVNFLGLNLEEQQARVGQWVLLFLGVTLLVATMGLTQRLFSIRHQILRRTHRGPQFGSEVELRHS
Experimental: 50 μl of a solution containing 0.01 mole/liter of hippuryl-histidyl-leucine (substrate) and 0-100 μl of a test compound solution were added to 300 μl of a 0.2M tris-hydrochloric acid buffer solution containing 0.2 mole/liter of sodium chloride. The total volume of said mixture was adjusted to 450 μl with water. Then, 50 μl of angiotensin-converting enzyme (ACE) isolated from pig's renal cortex were added to the mixture, and the mixture was allowed to stand at 37° C. for 20 minutes. The amount of histidyl-leucine produced from the substrate by the action of ACE was assayed microbiologically by the use of Leuconostoc mesenteroides P-60, and the ACE-inhibitory activity of the test compound was estimated therefrom.

SMILES: CCOC(=O)[C@H](CCc1ccccc1)N[C@@H](C)C(=O)N1C(=O)N(C)C[C@H]1C(=O)O [Example 1, (4S)-1-methyl-3-{(2S)-2-[N-((1S)-1-ethoxycarbonyl-3-phenylpropyl)amino]propionyl}-2-oxo-imidazolidine-4-carboxylic acid]
- ACE-inhibitory activity (%) (ACE [1]): 60 ± 6%
- inhibition of ACE-activity (ACE [1]; rats administered angiotensin I intravenously, 1.0 mg/kg): about 60%
- hypotensive activity, Blood pressure (b): measured after administration of the test compound [2]: 136 ± 4 mm Hg
- hypotensive activity, Blood pressure (a): measured before administration of the test compound [2]: 181 ± 3 mm Hg
- Duration of action ([2]; 3 mg/kg): more than 6 hours
- Duration of action ([2]; listed as CH3, CH3, C6 H5 (CH2)2, C2 H5, 3 mg/kg): > 6 h
- decrease in blood pressure ([2]; spontaneously hypertensive rats): about 45 mmHg

SMILES: CCCCCCCC[C@H](N[C@@H](C)C(=O)N1C(=O)N(C)C[C@H]1C(=O)O)C(=O)OCC [Example 3, (4S)-1-methyl-3-{(2S)-2-[N-((1S)-1-ethoxycarbonyl-n-nonyl)amino]propionyl}-2-oxo-imidazolidine-4-carboxylic acid]
- ACE-inhibitory activity (%) (ACE [1]): 56 ± 7%
- Duration of action [2]: > 6 h
- hypotensive activity, Blood pressure (b): measured after administration of the test compound [2]: 143 ± 4 mm Hg
- hypotensive activity, Blood pressure (a): measured before administration of the test compound [2]: 174 ± 5 mm Hg

SMILES: C[C@H](N[C@@H](CCc1ccccc1)C(=O)O)C(=O)N1C(=O)N(C)C[C@H]1C(=O)O [Example 4, (4S)-1-methyl-3-{(2S)-2-[N-((1S)-1-carboxy-3-phenylpropyl)amino]propionyl}-2-oxo-imidazolidine-4-carboxylic acid]
- ACE-inhibitory activity (%) (ACE [3]): 56 ± 3%
- ACE-inhibitory activity (%) (ACE [4]): 40 ± 6%

SMILES: CCCCCCCC[C@H](N[C@@H](C)C(=O)N1C(=O)N(C)C[C@H]1C(=O)O)C(=O)O [Example 5, (4S)-1-methyl-3-{(2S)-2-[N-((1S)-1-carboxy-n-nonyl)amino]propionyl}-2-oxo-imidazolidine-4-carboxylic acid]
- ACE-inhibitory activity (%) (ACE [3]): 47 ± 4%
- ACE-inhibitory activity (%) (ACE [4]): 36 ± 5%
- mortality (mice died) (mice): no mice died

SMILES: C[C@H](N[C@@H](CCc1ccccc1)C(=O)O)C(=O)N1C(=O)N(Cc2ccccc2)C[C@H]1C(=O)O [Example 8, (4S)-1-benzyl-3-{(2S)-2-[N-((1S)-1-carboxy-3-phenylpropyl)amino]propionyl}-2-oxo-imidazolidine-4-carboxylic acid]
- IC50 [5]: 1.7 nM
- ACE-inhibitory activity (%) (ACE [3]): 33 ± 4%
- ACE-inhibitory activity (%) (ACE [4]): 36 ± 8%
- mortality (mice died) (mice): no mice died

- IC50 [5]: 1.5 nM
SMILES: CCCCCCCC[C@H](N[C@@H](C)C(=O)N1C(=O)N(Cc2ccccc2)C[C@H]1C(=O)O)C(=O)O [Example 9, (4S)-1-benzyl-3-{(2S)-2-[N-((1S)-1-carboxy-n-nonyl)amino]propionyl}-2-oxo-imidazolidine-4-carboxylic acid]

- IC50 [5]: 2.1 nM
SMILES: CC(C)C[C@H](N[C@@H](C)C(=O)N1C(=O)N(Cc2ccccc2)C[C@H]1C(=O)O)C(=O)O [Example 12-(2), (4S)-1-benzyl-3-{(2S)-2-[N-((1S)-1-carboxy-isopentyl)amino]propionyl}-2-oxo-imidazolidine-4-carboxylic acid]

- IC50 [5]: 3.3 nM
SMILES: CC(C)CC[C@H](N[C@@H](C)C(=O)N1C(=O)N(Cc2ccccc2)C[C@H]1C(=O)O)C(=O)O [Example 13-(2), (4S)-1-benzyl-3-{(2S)-2-[N-((1S)-1-carboxy-4-methyl-n-pentyl)amino]propionyl}-2-oxo-imidazolidine-4-carboxylic acid]

- IC50 [5]: 11 nM
SMILES: C[C@H](N[C@@H](Cc1ccccc1)C(=O)O)C(=O)N1C(=O)N(Cc2ccccc2)C[C@H]1C(=O)O [Example 14-(3), (4S)-1-benzyl-3-{(2S)-2-[N-((1S)-1-carboxy-2-phenylethyl)amino]propionyl}-2-oxo-imidazolidine-4-carboxylic acid]

- IC50 [5]: 1.4 nM
SMILES: CCCCCCCC[C@H](N[C@@H](CC)C(=O)N1C(=O)N(Cc2ccccc2)C[C@H]1C(=O)O)C(=O)O [Example 15-(3), (4S)-1-benzyl-3-{(2S)-2-[N-((1S)-1-carboxy-n-nonyl)amino]-n-butyryl}-2-oxo-imidazolidine-4-carboxylic acid]

- IC50 [5]: 2.3 nM
SMILES: CC[C@H](N[C@@H](CCc1ccccc1)C(=O)O)C(=O)N1C(=O)N(Cc2ccccc2)C[C@H]1C(=O)O [Example 17-(2), (4S)-1-benzyl-3-{(2S)-2-[N-((1S)-1-carboxy-3-phenylpropyl)amino]-n-butyryl}-2-oxo-imidazolidine-4-carboxylic acid]
